Results reported in patent publication US10654834B2 (Venenum Biodesign, LLC, priority 2016, dated 2020).

Experiments:
[1] = target: T1, human TGR5 receptor (Homo sapiens, UniProt Q8TDU6); assay: Human TGR5 cAMP production assay (hTGR5-CHO cells, DiscoveRx cAMP XS+ kit); type: cell-based; details: luminescent cAMP assay, read-out: Human TGR5 Lum. cAMP Activity (EC50)
T1 construct: host or cells: CHO-K1 (hTGR5-CHO)
T1 sequence (Q8TDU6 1-330): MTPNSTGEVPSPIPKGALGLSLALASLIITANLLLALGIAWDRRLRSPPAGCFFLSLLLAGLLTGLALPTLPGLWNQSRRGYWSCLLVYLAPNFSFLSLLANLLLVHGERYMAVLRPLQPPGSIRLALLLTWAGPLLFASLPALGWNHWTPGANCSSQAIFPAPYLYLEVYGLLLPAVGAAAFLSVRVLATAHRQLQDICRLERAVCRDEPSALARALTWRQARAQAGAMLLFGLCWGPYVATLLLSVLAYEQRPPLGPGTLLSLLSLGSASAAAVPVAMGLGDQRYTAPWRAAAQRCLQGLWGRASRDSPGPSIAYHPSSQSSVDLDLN
Procedure, shortened: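 CHO-K1 cells stably expressing hTGR5, in PBS with IBMX and cAMP antibody, treated with half-log compound dilutions for 1 h at room temperature. cAMP measured by enzyme-fragment complementation luminescence after overnight detection; EC50 values reported.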

[2] = target: T2, mouse TGR5 receptor (Mus musculus, UniProt Q80SS6); assay: Mouse TGR5 HTRF cAMP production assay (HEK293-EBNA cells, Cisbio cAMP HiRange kit); type: cell-based; details: HEK293-EBNA cells overexpressing mouse TGR5, HTRF cAMP assay
T2 construct: host or cells: HEK293-EBNA (293 c18, ATCC CRL10852)
T2 sequence (Q80SS6 1-329): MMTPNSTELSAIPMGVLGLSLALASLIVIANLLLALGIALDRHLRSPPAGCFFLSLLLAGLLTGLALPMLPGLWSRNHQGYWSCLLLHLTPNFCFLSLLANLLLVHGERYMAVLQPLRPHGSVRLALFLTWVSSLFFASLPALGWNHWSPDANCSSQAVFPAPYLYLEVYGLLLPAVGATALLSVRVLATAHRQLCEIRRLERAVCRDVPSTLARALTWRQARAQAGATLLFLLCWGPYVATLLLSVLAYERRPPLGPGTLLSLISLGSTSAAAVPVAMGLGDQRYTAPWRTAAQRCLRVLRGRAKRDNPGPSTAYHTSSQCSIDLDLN
Procedure, shortened: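 HEK293-EBNA cells stably expressing mouse TGR5 (episomal vector) were suspended in serum-free DMEM with 500 μM IBMX and exposed to 12-point half-log compound dilutions for 1 h at room temperature. cAMP was detected by HTRF (d2-cAMP/anti-cAMP cryptate, 1 h, room temperature), giving EC50 from duplicates.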

SMILES | EC50 [1] [nM] | EC50 [2] [nM]
N#Cc1ccc(CCNC(=O)[C@@H]2CCCN2c2cc(-c3ccc(COCC(=O)NCS(=O)(=O)O)cc3)cc(C(F)(F)F)n2)cc1 [Compound 209, (S)-(2-((4-(2-(2-((4-cyanophenethyl)carbamoyl)pyrrolidin-1-yl)-6-(trifluoromethyl)pyridin-4-yl)benzyl)oxy)acetamido)methanesulfonic acid] | < 100 | < 100
O=C(O)CCCC1CCN(c2cc(N3C[C@H](O)C[C@H]3C(=O)NCCc3ccc(C(F)(F)F)cc3)nc(C(F)(F)F)n2)CC1 [Compound 212, 4-(1-(6-((2S,4R)-4-hydroxy-2-((4-(trifluoromethyl)phenethyl)carbamoyl)pyrrolidin-1-yl)-2-(trifluoromethyl)pyrimidin-4-yl)piperidin-4-yl)butanoic acid] | 100 to 999 | < 100
N#Cc1ccc(CCNC(=O)[C@@H]2CC(F)(F)CN2c2cc(N3CCC(CCNC(=O)NCCS(=O)(=O)O)CC3)nc(C(F)(F)F)n2)cc1 [Compound 216, (S)-2-(3-(2-(1-(6-(2-((4-cyanophenethyl)carbamoyl)-4,4-difluoropyrrolidin-1-yl)-2-(trifluoromethyl)pyrimidin-4-yl)piperidin-4-yl)ethyl)ureido)ethanesulfonic acid] | 100 to 999 | 100 to 999
N#Cc1ccc(CCNC(=O)[C@@H]2CCN2c2cc(N3CCN(CCO)CC3)nc(C(F)(F)F)n2)cc1 [Compound 224, (S)-N-(4-cyanophenethyl)-1-(6-(4-(2-hydroxyethyl)piperazin-1-yl)-2-(trifluoromethyl)pyrimidin-4-yl)azetidine-2-carboxamide] | 100 to 999 | < 100
COCCC1CCN(c2cc(N3CC[C@H]3C(=O)NCCc3ccc(C#N)cc3)nc(C(F)(F)F)n2)CC1 [Compound 225, (S)-N-(4-cyanophenethyl)-1-(6-(4-(2-methoxyethyl)piperidin-1-yl)-2-(trifluoromethyl)pyrimidin-4-yl)azetidine-2-carboxamide] | < 100 | < 100
CN(C)CCN1CCN(c2cc(N3CC[C@H]3C(=O)NCCc3ccc(C#N)cc3)nc(C(F)(F)F)n2)CC1 [Compound 226, (S)-N-(4-cyanophenethyl)-1-(6-(4-(2-(dimethylamino)ethyl)piperazin-1-yl)-2-(trifluoromethyl)pyrimidin-4-yl)azetidine-2-carboxamide] | 100 to 999 | 100 to 999
O=C(O)CCCC1CCN(c2cc(N3CC[C@H]3C(=O)NCCc3ccc(C(F)(F)F)cc3)nc(C(F)(F)F)n2)CC1 [Compound 233, (S)-4-(1-(2-(trifluoromethyl)-6-(2-((4-(trifluoromethyl)phenethyl)carbamoyl)azetidin-1-yl)pyrimidin-4-yl)piperidin-4-yl)butanoic acid] | < 100 | < 100
COc1cc(C(F)(F)F)ccc1CCNC(=O)[C@@H]1CCN1c1cc(N2CCC(CO)CC2)nc(C(F)(F)F)n1 [Compound 237, (S)-1-(6-(4-(hydroxymethyl)piperidin-1-yl)-2-(trifluoromethyl)pyrimidin-4-yl)-N-(2-methoxy-4-(trifluoromethyl)phenethyl)azetidine-2-carboxamide] | < 100 | < 100
N#Cc1ccc(CCNC(=O)[C@@H]2CCN2c2cc(N3CCC(CCN)CC3)nc(C(F)(F)F)n2)cc1 [Compound 246, (S)-1-(6-(4-(2-aminoethyl)piperidin-1-yl)-2-(trifluoromethyl)pyrimidin-4-yl)-N-(4-cyanophenethyl)azetidine-2-carboxamide] | < 100 | < 100
N#Cc1ccc(CCNC(=O)[C@@H]2CCN2c2cc(N3CCC(CCCC(=O)N[C@@H](CCCNC(=N)N)C(=O)O)CC3)nc(C(F)(F)F)n2)cc1 [Compound 251, (S)-2-(4-(1-(6-((S)-2-((4-cyanophenethyl)carbamoyl)azetidin-1-yl)-2-(trifluoromethyl)pyrimidin-4-yl)piperidin-4-yl)butanamido)-5-guanidinopentanoic acid] | < 100 | < 100
CN(CCS(=O)(=O)O)C(=O)CCC1CCN(c2cc(N3CC[C@H]3C(=O)NCCc3ccc(C(F)(F)F)cc3)nc(C(F)(F)F)n2)CC1 [Compound 252, (S)-2-(N-methyl-3-(1-(2-(trifluoromethyl)-6-(2-((4-(trifluoromethyl)phenethyl)carbamoyl)azetidin-1-yl)pyrimidin-4-yl)piperidin-4-yl)propanamido)ethanesulfonic acid] | < 100 | < 100
O=C(CCC1CCN(c2cc(N3CC[C@H]3C(=O)NCCc3ccc(C(F)(F)F)cc3)nc(C(F)(F)F)n2)CC1)NCCS(=O)(=O)O [Compound 254, (S)-2-(3-(1-(2-(trifluoromethyl)-6-(2-((4-(trifluoromethyl)-phenethyl)carbamoyl)azetidin-1-yl)pyrimidin-4-yl)piperidin-4-yl)propanamido)ethanesulfonic acid] | 100 to 999 | < 100
CCOC(=O)CCNC(=O)NCCC1CCN(c2cc(N3CC[C@H]3C(=O)NCCc3ccc(C#N)cc3)nc(C(F)(F)F)n2)CC1 [Compound 267, (S)-ethyl 3-(3-(2-(1-(6-(2-((4-cyanophenethyl)carbamoyl)azetidin-1-yl)-2-(trifluoromethyl)pyrimidin-4-yl)piperidin-4-yl)ethyl)ureido)propanoate] | < 100 | < 100
COC(=O)[C@@H](N)CCCCNC(=O)NCCC1CCN(c2cc(N3CC[C@H]3C(=O)NCCc3ccc(C#N)cc3)nc(C(F)(F)F)n2)CC1 [Compound 274, (S)-methyl 2-amino-6-(3-(2-(1-(6-((S)-2-((4-cyanophenethyl)carbamoyl)azetidin-1-yl)-2-(trifluoromethyl)pyrimidin-4-yl)piperidin-4-yl)ethyl)ureido)hexanoate] | < 100 | < 100
O=C(NCCc1ccc(C(F)(F)F)cc1)[C@@H]1CCN1c1cc(N2CCC(CCCC3CCNCC3)CC2)nc(C(F)(F)F)n1 [Compound 275, (S)-1-(6-(4-(3-(piperidin-4-yl)propyl)piperidin-1-yl)-2-(trifluoromethyl)pyrimidin-4-yl)-N-(4-(trifluoromethyl)phenethyl)azetidine-2-carboxamide] | < 100 | 100 to 999
O=C(CS(=O)(=O)O)NCCC1CCN(c2cc(N3CC[C@H]3C(=O)NCCc3ccc(C(F)(F)F)cc3)nc(C(F)(F)F)n2)CC1 [Compound 279, (S)-2-oxo-2-((2-(1-(2-(trifluoromethyl)-6-(2-((4-(trifluoromethyl)phenethyl)carbamoyl)azetidin-1-yl)pyrimidin-4-yl)piperidin-4-yl)ethyl)amino)-ethanesulfonic acid] | < 100 | < 100
O=C(NCCc1ccc(C(F)(F)F)cc1)[C@@H]1CCN1c1cc(N2CCC(CCCC3CCN(C(=O)CS(=O)(=O)O)CC3)CC2)nc(C(F)(F)F)n1 [Compound 280, (S)-2-oxo-2-(4-(3-(1-(2-(trifluoromethyl)-6-(2-((4-(trifluoromethyl)phenethyl)carbamoyl)azetidin-1-yl)pyrimidin-4-yl)piperidin-4-yl)propyl)piperidin-1-yl)ethanesulfonic acid] | 100 to 999 | < 100
N=C(N)N1CCC(CCCC2CCN(c3cc(N4CC[C@H]4C(=O)NCCc4ccc(C(F)(F)F)cc4)nc(C(F)(F)F)n3)CC2)CC1 [Compound 288, (S)-1-(6-(4-(3-(1-carbamimidoylpiperidin-4-yl)propyl)piperidin-1-yl)-2-(trifluoromethyl)pyrimidin-4-yl)-N-(4-(trifluoromethyl)phenethyl)-azetidine-2-carboxamide] | 100 to 999 | < 100
N=C(N)N1CCC(C2CCN(c3cc(N4CC[C@H]4C(=O)NCCc4ccc(C(F)(F)F)cc4)nc(C(F)(F)F)n3)CC2)CC1 [Compound 289, (S)-1-(6-(1′-carbamimidoyl-[4,4′-bipiperidin]-1-yl)-2-(trifluoromethyl)pyrimidin-4-yl)-N-(4-(trifluoromethyl)phenethyl)-azetidine-2-carboxamide] | < 100 | < 100
COC(=O)c1ccc(S(=O)(=O)NCCOCCNC(=O)CCCC2CCN(c3cc(N4CC[C@H]4C(=O)NCCc4ccc(C#N)cc4)nc(C(F)(F)F)n3)CC2)cc1 [Compound 290, (S)-methyl 4-(N-(2-(2-(4-(1-(6-(2-((4-cyanophenethyl)carbamoyl)azetidin-1-yl)-2-(trifluoromethyl)pyrimidin-4-yl)piperidin-4-yl)butanamido)ethoxy)ethyl)-sulfamoyl)benzoate] | 100 to 999 | < 100
